Common to all, as to test: inhibition of tumour cell growth, NCI panel, 48 h
The test system of assay [1] is NCI-H460 lung.
Assay [2] relates to SK-OV-3 ovarian.
Assay [3] relates to OVCAR-8 ovarian.
Assay [4] deals with A549 NSCLC.
For assay [5], the system named is NCI-H522 lung.
Assay [6] concerns SK-MEL-28 melanoma.
Assay [7] deals with CAKI-1 renal.
Assay [8] concerns U251 CNS.
Assay [9] concerns SF-539 CNS.
The test system of assay [10] is KM12 colon.
Assay [11] relates to UACC-62 melanoma.
Assay [12] has as its system DU-145 prostate.
Assay [13] relates to HL-60(TB) leukemia.
For assay [14], the system named is SNB-19 CNS.
Assay [15] deals with SK-MEL-5 melanoma.
Assay [16] concerns HS 578T breast.
Assay [17] concerns HOP-92 NSCLC.
In assay [18] the test system is EKVX NSCLC.
Assay [19] relates to HCC-2998 colon.

Molecules are shown by their SMILES.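 Assay format: 96-well plates, 48-hour exposure. Definition used: TGI = concentration required for complete inhibition of growth.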 Where a SMILES comes first, the peptide text is derived from it. The star is where a group is joined. Boc = CC(C)(C)OC(=O)*; OtBu = CC(C)(C)O*

Consider `CN1CN(c2ccccc2)C2(CCN(CCCN(C)c3ccc(F)cc3)CC2)C1=O`, for which the TGI was found to be 32.9 µM in assay [1]; 42.3 µM in [2]; 45.2 µM in assay [3]; 65.9 µM in assay [4]; 27.4 µM in [5]; 37.9 µM in assay [6]. The TGI was 86.4 µM in assay [7]; 33.3 µM in [8]; 39.7 µM in assay [9]; 31.3 µM in assay [10]; 36.5 µM in assay [11]; 76.1 µM in assay [12]. Moreover, the TGI in assay [13] amounted to 26.2 µM; in assay [14] it was 56.5 µM; in assay [15], 29.8 µM; in assay [16], 42.8 µM.

For `COC(=O)c1c(O)ccc2c1c1c(n2CCc2ccccc2)C(=O)c2ccccc2C1`, the TGI in assay [1] was 48.3 µM; in assay [2] it was 64.2 µM; in assay [3], more than 100 µM; in assay [4], more than 100 µM; in assay [17], 30.9 µM; in assay [6], 53.8 µM. The TGI in assay [7] is 45.6 µM; in assay [8] it was 80.3 µM; in assay [9], 45.2 µM; in [10] it was more than 100 µM; in assay [11], 37.2 µM; in assay [12], more than 100 µM. Besides, the TGI was 65.3 µM in [13], 84.1 µM in assay [14], 43 µM in [15] and more than 100 µM in assay [16].

Take `O=C(NNC(=O)c1cc2ccccc2[nH]1)c1cc2ccccc2[nH]1`: the TGI in assay [1], in assay [2], in assay [3], in assay [4], in assay [5] and in assay [6] was more than 100 µM in each case. Moreover, the TGI in [7], in assay [8], in assay [9], in assay [10], in assay [18] and in assay [11] was more than 100 µM in each case. Moreover, the TGI in [12], in [13], in assay [14], in assay [15] and in [16] was more than 100 µM each time.

`CC(=O)OCC1OC(Sc2nc(-c3ccccc3)c(C#N)c(=O)n2C2OC(COC(C)=O)C(OC(C)=O)C(OC(C)=O)C2OC(C)=O)C(OC(C)=O)C(OC(C)=O)C1OC(C)=O` (centres undefined): the TGI in assay [1], in [2], in [3], in assay [4], in assay [17] and in assay [5] was more than 100 µM each time. The TGI in [6], in assay [7], in [8], in assay [9], in assay [10] and in assay [18] was more than 100 µM in each case. Also, the TGI in [11], in [12], in assay [19], in assay [15] and in assay [16] was more than 100 µM each time.

In the case of `CCOC(=O)c1cn2c(n1)sc1cc([N+](=O)[O-])ccc12`, the TGI in assay [1], in assay [2], in assay [3], in assay [4], in assay [17] and in assay [5] was more than 100 µM each time. The TGI in assay [6], in assay [7], in assay [8], in [9], in [10] and in assay [18] was more than 100 µM throughout. Moreover, the TGI in [11], in assay [12], in assay [19], in assay [14], in [15] and in assay [16] was more than 100 µM in each case.

Regarding `CC(C)CCNC(=O)c1ccc(CNC(=O)/C=C/c2ccc3c(c2)-c2ccccc2C3)cc1`, the TGI in [1] is more than 100 µM; in assay [2], more than 100 µM; in [3], 71.4 µM; in [4], more than 100 µM; in assay [17] it was more than 100 µM; in assay [5], more than 100 µM. The TGI in assay [6] was more than 100 µM; in assay [7], 78.9 µM; in assay [8] it was 65.2 µM; in assay [9], more than 100 µM; in assay [10], more than 100 µM; in [18], more than 100 µM. Also, the TGI in assay [11], in assay [12], in assay [19], in assay [14], in [15] and in [16] was more than 100 µM throughout.

`CC(C)(C)OC(=O)CC(NC(=O)OC(C)(C)C)C(=O)NC(Cc1ccccc1)C(N)=O` (centres undefined) (Boc-Asp(OtBu)-Phe-NH2; configuration not given here): the TGI in [1], in assay [2], in assay [3], in [4], in assay [17] and in assay [5] was more than 100 µM each time. Moreover, the TGI in assay [6], in assay [7], in assay [8], in assay [9], in [10] and in [18] was more than 100 µM throughout. Besides, the TGI in [12], in assay [14], in [15] and in assay [16] was more than 100 µM in each case.

With `CCc1c(N=[N+]=[N-])c2ccccc2oc1=O`, the TGI in [1], in assay [2], in assay [3], in assay [4], in [17] and in [5] was more than 100 µM throughout. Moreover, the TGI in assay [6], in assay [8], in assay [9], in [10], in [18] and in assay [11] was more than 100 µM each time. Further, the TGI in assay [12], in assay [13], in assay [19] and in assay [16] was more than 100 µM in each case.

For the origin of these results see PubChem BioAssay (NCI).
